Results taken from patent publication US10286063B2 (priority 2015, dated 2019).
“Also recorded” adds a separate entry of the source.

Tests used:
PBMC = assay type: cell-based, human
Normal subject PBMC = assay type: cell-based, human

Sequence | % Inhibition by HLA-DR blocking Ab (PBMC) | Effect of blocking HLA-DR on peptide-induced T cell response (in words) (PBMC) | suppression of T cell responses to HA peptides from circulating IAV strains (Normal subject PBMC) | suppression of T cell response to pool of H7N9 ICS peptides on co-incubation (Normal subject PBMC)
DKLYERVKRQLRENAEED [Peptide H7N9-8] | 89% | only partially inhibited |  | 
RIDFHWLMLNPNDTVTFS [Peptide H7N9-1] | 46% | only partially inhibited |  | 
QPEWFRNVLSIAPIMFSNK [Peptide H7N9-4] | 100% |  |  | 
PKYVKSNRLVLATG [IAV-4, reference compound] | 96% | only partially inhibited |  | 
IVYWKQWLSLKNLTQ [Peptide H7N9-14A] | 100% |  | Reduced responses to the pool of IAV peptides (1-4) | 
PRYVKQRSLLLATG [Peptide H7N9-13] | 100% |  | significantly suppressed T cell response to IAV-3; also recorded: Reduced responses to the pool of IAV peptides (1-4); also recorded: able to suppress responses to other immunodominant HA peptides from circulating IAV strains | significantly suppressed T cell response to the pooled peptides; also recorded: significantly decreased
QITFMQALQLLLEVE [Peptide H7N9-12] | 100% |  |  | 
YAEMKWLLSNTDNAAFPQ [Peptide H7N9-2] | 100% |  |  | 
AVKLYKKLKREMTFHGA [Peptide H7N9-9] | 100% |  |  | did not suppress T cell responses to the pool of H7N9 epitopes
AANIIGILHLILWILDRL [Peptide H7N9-10] | 68% | only partially inhibited |  | 
PRYVKQSTLKLATG [IAV-2, reference compound] | 73% | only partially inhibited |  | 
SRKLLLIVQALRDNLEPG [Peptide H7N9-11] | increased response | the response increased in the presence of the blocking antibody; also recorded: response was absent except when HLA-DR was blocked |  | 
PKYVKSTKLRLATG [IAV-1, reference compound] | 100% |  |  | 
WKQWLSLKNTLTQGSL [Peptide H7N9-14B] |  |  | Reduced responses to the pool of IAV peptides (1-4) | 
PRYVKQNTLKLATG [IAV-3, reference compound] | 78% | only partially inhibited |  | 
KGILGFVFTLTVPSERGLQ [Peptide H7N9-3] | 97% | only partially inhibited |  | 
